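Exposure lasted 48 hours, with cells grown in 96-well plates and compounds tested at five concentrations. TGI marks complete inhibition of growth.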
Experiments:
Assay in all cases: NCI tumour cell line growth inhibition, 48 h
OVCAR-3 ovarian = system: OVCAR-3 ovarian
NCI-H23 lung = system: NCI-H23 lung
K-562 leukemia = system: K-562 leukemia
SW-620 colon = system: SW-620 colon
SK-MEL-28 melanoma = system: SK-MEL-28 melanoma
SNB-75 CNS = system: SNB-75 CNS
RPMI-8226 leukemia = system: RPMI-8226 leukemia
KM12 colon = system: KM12 colon
HOP-92 NSCLC = system: HOP-92 NSCLC
MDA-N = system: MDA-N

## CC(=O)Nc1ccc(C(=O)N2N=C(C)/C(=C/c3cccc(O)c3)C2=O)cc1
OVCAR-3 ovarian
  TGI: > 100 µM
NCI-H23 lung
  TGI: > 100 µM
K-562 leukemia
  TGI: > 100 µM
SW-620 colon
  TGI: > 100 µM
SK-MEL-28 melanoma
  TGI: > 100 µM
SNB-75 CNS
  TGI: > 100 µM

## CC(=O)OCC1OC(n2c3c(c(-c4ccco4)c(C#N)c2=S)CCCC3)C(OC(C)=O)C(OC(C)=O)C1OC(C)=O (stereo not given)
OVCAR-3 ovarian
  TGI: > 31.6 µM
RPMI-8226 leukemia
  TGI: > 100 µM
KM12 colon
  TGI: > 31.6 µM
NCI-H23 lung
  TGI: > 31.6 µM
HOP-92 NSCLC
  TGI: 19.3 µM
SW-620 colon
  TGI: > 100 µM
MDA-N
  TGI: > 31.6 µM
SK-MEL-28 melanoma
  TGI: > 31.6 µM
SNB-75 CNS
  TGI: 24.6 µM

## c1ccc(COc2ncccc2C2SCCCS2)cc1
OVCAR-3 ovarian
  TGI: > 100 µM
RPMI-8226 leukemia
  TGI: > 100 µM
KM12 colon
  TGI: > 100 µM
NCI-H23 lung
  TGI: > 100 µM
HOP-92 NSCLC
  TGI: > 100 µM
K-562 leukemia
  TGI: > 100 µM
SW-620 colon
  TGI: > 100 µM
MDA-N
  TGI: > 100 µM
SK-MEL-28 melanoma
  TGI: > 100 µM

## COc1cc2cc3c4c(cc(OC)c(OC)c4c2cc1OC)CCN3C(=O)OCCBr
OVCAR-3 ovarian
  TGI: > 100 µM
KM12 colon
  TGI: > 100 µM
NCI-H23 lung
  TGI: > 100 µM
HOP-92 NSCLC
  TGI: > 100 µM
SW-620 colon
  TGI: > 100 µM
SK-MEL-28 melanoma
  TGI: > 100 µM
SNB-75 CNS
  TGI: > 100 µM

## CC(C)CC1c2[nH]c3ccccc3c2C[C@H]2C(=O)NC(COC(C)(C)C)C(=O)N12 (stereo not given in full)
OVCAR-3 ovarian
  TGI: 16.3 µM
RPMI-8226 leukemia
  TGI: 58 µM
KM12 colon
  TGI: 80.2 µM
NCI-H23 lung
  TGI: 91.3 µM
HOP-92 NSCLC
  TGI: 74.7 µM
K-562 leukemia
  TGI: 92.7 µM
SW-620 colon
  TGI: > 100 µM
MDA-N
  TGI: 51.8 µM
SK-MEL-28 melanoma
  TGI: > 100 µM

## COc1ccc(S(=O)(=O)Nc2ccc(-c3csc(N4C(=O)/C(=C/C=C\c5ccccc5)N=C4c4ccccc4)n3)cc2)cc1Cl
OVCAR-3 ovarian
  TGI: > 100 µM
KM12 colon
  TGI: 97.1 µM
NCI-H23 lung
  TGI: 42.4 µM
HOP-92 NSCLC
  TGI: 41.1 µM
K-562 leukemia
  TGI: > 100 µM
SW-620 colon
  TGI: > 100 µM
MDA-N
  TGI: 80.7 µM
SK-MEL-28 melanoma
  TGI: > 100 µM
SNB-75 CNS
  TGI: > 100 µM

## COc1ccc(NC(=O)C2=C(SC)C(=O)N=C2N)cc1
RPMI-8226 leukemia
  TGI: > 100 µM
KM12 colon
  TGI: > 100 µM
NCI-H23 lung
  TGI: > 100 µM
HOP-92 NSCLC
  TGI: > 100 µM
K-562 leukemia
  TGI: > 100 µM
SW-620 colon
  TGI: > 100 µM
SK-MEL-28 melanoma
  TGI: > 100 µM
SNB-75 CNS
  TGI: > 100 µM

## CCOc1ccc(NC(=S)/N=C/C(C(=O)Nc2ccccc2C)=C(\C)O)cc1
OVCAR-3 ovarian
  TGI: > 100 µM
RPMI-8226 leukemia
  TGI: > 100 µM
KM12 colon
  TGI: > 100 µM
NCI-H23 lung
  TGI: > 100 µM
K-562 leukemia
  TGI: > 100 µM
SW-620 colon
  TGI: > 100 µM
MDA-N
  TGI: > 100 µM

## O=C(CCN1CCCCC1CO)Nc1ccc2c(c1)C(=O)c1ccc(NC(=O)CCN3CCCCC3CO)cc1C2=O (stereo not given)
RPMI-8226 leukemia
  TGI: 48 µM
KM12 colon
  TGI: 17.1 µM
NCI-H23 lung
  TGI: 38.1 µM
HOP-92 NSCLC
  TGI: 37.2 µM
K-562 leukemia
  TGI: 46.1 µM
SW-620 colon
  TGI: 27 µM
SK-MEL-28 melanoma
  TGI: 28.4 µM

## CC(=O)Oc1ccc2c(c1)c1c(OC(C)=O)c3ccccc3c(OC(C)=O)c1n2Cc1cccc(C)c1
OVCAR-3 ovarian
  TGI: 72.9 µM
RPMI-8226 leukemia
  TGI: 74.4 µM
KM12 colon
  TGI: > 100 µM
NCI-H23 lung
  TGI: > 100 µM
HOP-92 NSCLC
  TGI: 33.5 µM
K-562 leukemia
  TGI: > 100 µM
MDA-N
  TGI: > 100 µM
SK-MEL-28 melanoma
  TGI: > 100 µM
SNB-75 CNS
  TGI: 41.6 µM

## COC(=O)CCc1ccc2c(c1)CC1(C2)Cc2ccc(CCC(=O)OC)cc2C1
OVCAR-3 ovarian
  TGI: > 100 µM
RPMI-8226 leukemia
  TGI: 89.7 µM
KM12 colon
  TGI: > 100 µM
NCI-H23 lung
  TGI: > 100 µM
HOP-92 NSCLC
  TGI: 99.7 µM
K-562 leukemia
  TGI: > 100 µM
MDA-N
  TGI: > 100 µM
SNB-75 CNS
  TGI: > 100 µM

## COc1cc2c(cc1OC)C1Cc3ccccc3CN1CCC2 (stereo not given)
OVCAR-3 ovarian
  TGI: > 100 µM
KM12 colon
  TGI: > 100 µM
NCI-H23 lung
  TGI: > 100 µM
HOP-92 NSCLC
  TGI: > 100 µM
K-562 leukemia
  TGI: > 100 µM
SW-620 colon
  TGI: > 100 µM
MDA-N
  TGI: > 100 µM
SK-MEL-28 melanoma
  TGI: > 100 µM
SNB-75 CNS
  TGI: > 100 µM

## COc1cc(/C=C2\C[C@H]3[C@@H]4CC=C5C[C@@H](N6CCCC6)CC[C@]5(C)[C@H]4CC[C@]3(C)[C@H]2OC(C)=O)cc(OC)c1OC
OVCAR-3 ovarian
  TGI: 29.8 µM
RPMI-8226 leukemia
  TGI: 29.6 µM
KM12 colon
  TGI: 31.2 µM
NCI-H23 lung
  TGI: 28.5 µM
HOP-92 NSCLC
  TGI: 22.3 µM
SW-620 colon
  TGI: 34.7 µM
MDA-N
  TGI: 23.3 µM
SK-MEL-28 melanoma
  TGI: 34.1 µM
SNB-75 CNS
  TGI: 29.4 µM

## CSC1(SC)CCCCCCCCCCC1
OVCAR-3 ovarian
  TGI: 72.7 µM
RPMI-8226 leukemia
  TGI: > 100 µM
KM12 colon
  TGI: > 100 µM
NCI-H23 lung
  TGI: > 100 µM
HOP-92 NSCLC
  TGI: 87.5 µM
K-562 leukemia
  TGI: > 100 µM
SW-620 colon
  TGI: > 100 µM
MDA-N
  TGI: > 100 µM
SK-MEL-28 melanoma
  TGI: > 100 µM

## C=C1c2nc3ccccc3n2C=C(c2ccccc2)N1c1ccc(OC)cc1
OVCAR-3 ovarian
  TGI: > 100 µM
RPMI-8226 leukemia
  TGI: > 100 µM
KM12 colon
  TGI: 24.3 µM
NCI-H23 lung
  TGI: 74.4 µM
HOP-92 NSCLC
  TGI: > 100 µM
K-562 leukemia
  TGI: > 100 µM
SW-620 colon
  TGI: > 100 µM
MDA-N
  TGI: > 100 µM
SNB-75 CNS
  TGI: 21.2 µM

## Fc1nc(F)nc(-c2c3ccccc3c3n2CCS3)n1
OVCAR-3 ovarian
  TGI: > 100 µM
RPMI-8226 leukemia
  TGI: > 100 µM
KM12 colon
  TGI: > 100 µM
NCI-H23 lung
  TGI: > 100 µM
HOP-92 NSCLC
  TGI: > 100 µM
K-562 leukemia
  TGI: > 100 µM
SW-620 colon
  TGI: > 100 µM
SK-MEL-28 melanoma
  TGI: > 100 µM
SNB-75 CNS
  TGI: > 100 µM

## CSc1nc(Br)nc2c1ncn2C1CC(Oc2ccc(C)cc2)C(COc2ccc(C)cc2)O1 (stereo not given)
OVCAR-3 ovarian
  TGI: > 100 µM
RPMI-8226 leukemia
  TGI: > 100 µM
KM12 colon
  TGI: > 100 µM
NCI-H23 lung
  TGI: > 100 µM
HOP-92 NSCLC
  TGI: > 100 µM
SW-620 colon
  TGI: > 100 µM
MDA-N
  TGI: > 100 µM
SK-MEL-28 melanoma
  TGI: > 100 µM
SNB-75 CNS
  TGI: 94.6 µM

## O=C1O/C(=C\c2ccc(O)cc2)C(c2ccc(O)c(Cl)c2)=C1Br
OVCAR-3 ovarian
  TGI: 21.1 µM
RPMI-8226 leukemia
  TGI: 30.7 µM
KM12 colon
  TGI: 30.3 µM
NCI-H23 lung
  TGI: 59.2 µM
HOP-92 NSCLC
  TGI: 32.1 µM
K-562 leukemia
  TGI: 10.5 µM
SW-620 colon
  TGI: 37.9 µM
MDA-N
  TGI: > 100 µM
SK-MEL-28 melanoma
  TGI: 26.2 µM

## C=C1C(=O)O[C@H]2C(=O)[C@H](C)CCC[C@@](C)(O)/C=C\C[C@@]3(C)O[C@@H]3C[C@@H]12
OVCAR-3 ovarian
  TGI: 24.3 µM
RPMI-8226 leukemia
  TGI: 33.7 µM
KM12 colon
  TGI: 39.3 µM
NCI-H23 lung
  TGI: 68.8 µM
HOP-92 NSCLC
  TGI: 23.8 µM
SW-620 colon
  TGI: 22.1 µM
MDA-N
  TGI: 34.8 µM

## c1ccc(C/C(=N\Nc2nc3ccccc3o2)c2ccccn2)cc1
OVCAR-3 ovarian
  TGI: 0.0301 µM
RPMI-8226 leukemia
  TGI: 0.957 µM
KM12 colon
  TGI: 6.67 µM
NCI-H23 lung
  TGI: > 36.4 µM
HOP-92 NSCLC
  TGI: 0.268 µM
K-562 leukemia
  TGI: 3.66 µM
SW-620 colon
  TGI: 4.79 µM
MDA-N
  TGI: 5.13 µM

## Cc1cccc(N2CCN(S(=O)(=O)c3ccc(Cl)cc3)C2=N)c1C
RPMI-8226 leukemia
  TGI: > 100 µM
KM12 colon
  TGI: > 100 µM
NCI-H23 lung
  TGI: > 100 µM
K-562 leukemia
  TGI: > 100 µM
SW-620 colon
  TGI: > 100 µM
MDA-N
  TGI: > 100 µM
SK-MEL-28 melanoma
  TGI: > 100 µM
SNB-75 CNS
  TGI: > 100 µM

## N#Cc1nnc2c3c(-c4ccc(Cl)cc4)c(C#N)c(=O)[nH]c3nn2c1N
OVCAR-3 ovarian
  TGI: 8.08 µM
RPMI-8226 leukemia
  TGI: 51.1 µM
KM12 colon
  TGI: 28.5 µM
NCI-H23 lung
  TGI: 24 µM
HOP-92 NSCLC
  TGI: 27.9 µM
K-562 leukemia
  TGI: > 41.6 µM
SW-620 colon
  TGI: 32 µM
MDA-N
  TGI: 13.4 µM
SK-MEL-28 melanoma
  TGI: 44.5 µM

## COC1(OC)N=C(N)C2(C#N)/C(=N/N(C)C)CC(C)C12C#N (stereo not given)
KM12 colon
  TGI: > 100 µM
NCI-H23 lung
  TGI: > 100 µM
HOP-92 NSCLC
  TGI: > 100 µM
K-562 leukemia
  TGI: > 100 µM
SW-620 colon
  TGI: > 100 µM
MDA-N
  TGI: > 100 µM
SK-MEL-28 melanoma
  TGI: > 100 µM
SNB-75 CNS
  TGI: > 100 µM

## OCc1ccccc1OC1OC(CO)C(O)C(O)C1O (stereo not given)
OVCAR-3 ovarian
  TGI: > 100 µM
RPMI-8226 leukemia
  TGI: > 100 µM
KM12 colon
  TGI: > 100 µM
NCI-H23 lung
  TGI: > 100 µM
HOP-92 NSCLC
  TGI: > 100 µM
SW-620 colon
  TGI: > 100 µM
MDA-N
  TGI: > 100 µM
SK-MEL-28 melanoma
  TGI: > 100 µM
SNB-75 CNS
  TGI: > 100 µM

Reference: PubChem BioAssay (NCI)
